For eleven molecules, IC50 and EC50 results are on record in patent US10351530B2, “Arylcyclohexyl pyrazoles as NRF2 regulators” (GlaxoSmithKline Intellectual Property Development Limited, priority 2015, dated 2019).

SMILES strings stand for the structures.

Assay [1] addresses T1, NRF2/Keap1 (Homo sapiens, UniProt Q14145).
T1 construct: full length NRF2 protein and full length Keap1 protein (Keap1 exists a dimer) are used
Put plainly: NRF2-Keap1 TR-FRET Assay (full length NRF2 and full length Keap1). Type of assay: binding. The following applies: 25 nM Keap1-FlagHis, 50 nM biotin-NRF2 added. The text has this:
In the NRF2-Keap1 TR-FRET (time-resolved fluorescence resonance energy transfer) assay, full length NRF2 protein and full length Keap1 protein (Keap1 exists a dimer) are used. The assay detects the ability of compound to displace the binding of FlagHis-tagged Keap1 with biotinylated, Avi-tagged NRF2 protein. Biotin-NRF2 binds to streptavidin-europium (a component of the detection mix) and Keap1-FlagHis is recognized by anti-Flag APC (allophycocyanin) antibody (also a component of the detection mix). If binding occurs between the two proteins, there will be an energy transfer from the Eu+3 (donor) at 615 nm to the APC (acceptor) at 665 nm. A potential Keap1 inhibitor will cause a reduction in the TR-FRET signal by interfering with the binding of Keap1 to NRF2.
One hundred nanoliters of 100× compound dose response curves (serial 3-fold dilutions) in DMSO are stamped using an Echo liquid handling system (Labcyte) into 384-well, low volume, black assay plates (Greiner, #784076), with DMSO in columns 6 and 18. The top concentration of compound is located in columns 1 and 13. All reagents are diluted in assay buffer (50 mM Tris, pH 8.0, 5 mM MgCl2, 100 mM NaCl, 0.005% BSA, 1 mM DTT, and 2 mM CHAPS). The BSA, DTT, and CHAPS are added to the assay buffer on the day of assay. Using a Multidrop Combi (Thermo Electron Corporation) equipped with a metal tip dispenser, 5 ul of 25 nM Keap1-FlagHis protein is added to all wells of the compound plate, with the exception of the wells in column 18. Wells in column 18 receive 5 ul of assay buffer instead. Plates are centrifuged at 500 rpm for 1 minute, covered with a plate lid, and incubated at 37° C. for 2.25 hours. Plates are then removed from the incubator and allowed to cool to RT for 15 minutes. Five microliters of 50 nM biotin-NRF2 protein is then added to all wells of the plates and the plates are spun at 500 rpm for 1 minute, followed by incubating at 4° C. for 1.25 hours. The plates are then allowed to warm to RT for 15 minutes, followed by the addition of 10 ul of detection mix (1 nM Streptavidin Eu+ W1024 and 5 ug/ml mouse anti-DYKDDDDK IgG conjugated to SureLight APC antibody; both from Columbia Biosciences) to all wells. Plates are spun at 500 rpm for 1 minute, incubated for 1 hour at RT, and read on an Envision plate reader using a 320 nm excitation filter and 615 nm and 665 nm emission filters. Compound response (% inhibition) and potency (pIC50) are calculated based on the ratio of the two emissions (665 nm/615 nm) and then the transformed data is normalized against controls in the assay (control 1=1% DMSO in the presence of NRF2 and Keap1 protein and control 2=1% DMSO in the absence of protein). Data analysis is handled using the software package Abase XE (Surrey, United Kingdom). The % inhibition values are calculated from the ratio (transformed) data by the equation: 100−(100*(compound response-average control 2)/(average control 1−average control 2)).
For calculation of pIC50s, Abase XE uses a four parameter equation.

Assay [2] concerns the target T2, Keap1/NRF2 (Homo sapiens, UniProt Q14145).
T2 construct: Keap1 (321-609) is diluted to 40 nM (2×) in 1× assay buffer
Put plainly: NRF2-Keap1 FP Assay (Kelch domain (321-609) of Keap1, TAMRA-labeled NRF2 ETGE peptide). Type of assay: binding. To be noted: Keap1 (321-609) 20 nM, Tamra labeled peptide 8 nM. The text has this:
One model for the NRF2-Keap1 interaction is through two binding sites in the Neh2 domain on NRF2. The two sites are referred to as the DLG binding motif (latch domain, uM affinity) and the ETGE binding motif (hinge domain, nM affinity). The Keap1 protein consists of an N-terminal region (NTR), a broad complex, tramtrack, and brick a′ brac domain (BTB), an intervening region (IVR), a double glycine repeat domain (DGR or Kelch), and a C-terminal region. The DLG and ETGE motifs of NRF2's Neh2 domain bind to the Kelch domain of Keap1 at different affinities. In the Keap1 Kelch fluorescence polarization (FP) assay, a TAMRA-labeled 16 mer peptide (AFFAQLQLDEETGEFL) containing the ETGE motif of NRF2 and the Kelch domain (321-609) of Keap1 is used. The assay determines if a compound interferes with the binding between Keap1 […] and the TAMRA-labeled peptide. Binding of TAMRA-labeled NRF2 peptide to Keap1 (321-609) results in a high FP signal. If a compound interferes with the binding between the peptide and the protein, it will cause the assay signal to decrease. Thus, assay signal is inversely proportional to binding inhibition.
100 nl of 100× compound dose response curves (serial 3-fold dilutions) in DMSO are stamped using an Echo liquid handling system (Labcyte) into 384-well low volume black assay plates (Greiner, #784076), with DMSO in columns 6 and 18. The top concentration of compound is located in columns 1 and 13. Keap1 (321-609) is diluted to 40 nM (2×) in 1× assay buffer (50 mM Tris, pH 8.0, 100 mM NaCl, 5 mM MgCl2, 1 mM DTT, 2 mM CHAPS, and 0.005% BSA) and 5 ul is added using a Multidrop Combi (Thermo Electron Corporation) equipped with a metal tip dispenser to all wells of the compound plate, except column 18. Column 18 receives only 5 ul of assay buffer. Immediately, 5 uL of 16 nM (2×) of Tamra labeled peptide (AFFAQLQLDEETGEFL, 21st Century Biochemicals) is added to all wells of the plate. The plates are spun at 500 rpm for 1 min, incubated for 1 hr at room temperature, and read on an Analyst GT (Molecular Devices) equipped with excitation (530/25 nm) and emission (580/10 nm) filters designed for Tamra probes. A 561 nm dichroic mirror is also used in the Analyst. The final assay concentrations of Keap1 (321-609) and Tamra labeled peptide are 20 nM and 8 nM, respectively. Fluorescence measurements, represented as mP, are used in the transformation of the data. Compound activity is calculated based on percent inhibition, normalized against controls in the assay (Control 1 contains the Tamra peptide and Keap1 (321-609) together (0% response) and control 2 contains the Tamra peptide alone (100% response)). Data analysis is handled using the software package Abase XE (Surrey, United Kingdom. The % inhibition values are calculated by the equation: 100−(100*((compound response-average control 2)/(average control 1−average control 2))). For calculation of pIC50s, Abase XE uses a four parameter equation.

Assay [3] has as its system NQO1 specific enzyme activity in BEAS-2B cells. Put plainly: BEAS-2B NQO1 MTT Assay. The format is cell-based. To be noted: Homo sapiens, BEAS-2B, 48 h, NQO1 specific activity induction. The text has this: NAD(P)H:quinone oxidoreductase 1 (NQO1), also called DT diaphorase, is a homodimeric FAD-containing enzyme that catalyzes obligatory NAD(P)H-dependent two-electron reductions of quinones and protects cells against the toxic and neoplastic effects of free radicals and reactive oxygen species arising from one-electron reductions. The transcription of NQO1 is finely regulated by NRF2, and thus NQO1 activity is a good marker for NRF2 activation. On day one, frozen BEAS-2B cells (ATCC) are thawed in a water bath, counted, and re-suspended at a concentration of 250,000 cells/mL. Fifty microliters of cells are plated in 384 well black clear-bottomed plates. Plates are incubated at 37° C., 5% CO2 overnight. On day two, plates are centrifuged and 50 nL of compound or controls are added to the cells. Plates are then incubated at 37° C., 5% CO2 for 48 hours. On day four, medium is aspirated from the plate and crude cell lysates are made by adding 13 uL of 1× Cell Signaling Technologies lysis buffer with 1 Complete, Mini, EDTA-free Protease Inhibitor Tablet (Roche) for each 10 mL of lysis buffer. After lysis plates are incubated for 20 minutes at room temperature. Two microliters of lysate are removed for use in Cell Titer Glo assay (Promega) and MTT cocktail is prepared (Prochaska et. al. 1998) for measurement of NQO1 activity. Fifty microliters of MTT cocktail is added to each well, plate is centrifuged, and analyzed on an Envision plate reader (Perkin Elmer) using Absorbance 570 nm label for 30 minutes. Product formation is measured kinetically and the pEC50 of NQO1 specific activity induction is calculated by plotting the change in absorbance (Delta OD/min) versus the log of compound concentration followed by 3-parameter fitting.

T1 sequence (Q14145 whole entry): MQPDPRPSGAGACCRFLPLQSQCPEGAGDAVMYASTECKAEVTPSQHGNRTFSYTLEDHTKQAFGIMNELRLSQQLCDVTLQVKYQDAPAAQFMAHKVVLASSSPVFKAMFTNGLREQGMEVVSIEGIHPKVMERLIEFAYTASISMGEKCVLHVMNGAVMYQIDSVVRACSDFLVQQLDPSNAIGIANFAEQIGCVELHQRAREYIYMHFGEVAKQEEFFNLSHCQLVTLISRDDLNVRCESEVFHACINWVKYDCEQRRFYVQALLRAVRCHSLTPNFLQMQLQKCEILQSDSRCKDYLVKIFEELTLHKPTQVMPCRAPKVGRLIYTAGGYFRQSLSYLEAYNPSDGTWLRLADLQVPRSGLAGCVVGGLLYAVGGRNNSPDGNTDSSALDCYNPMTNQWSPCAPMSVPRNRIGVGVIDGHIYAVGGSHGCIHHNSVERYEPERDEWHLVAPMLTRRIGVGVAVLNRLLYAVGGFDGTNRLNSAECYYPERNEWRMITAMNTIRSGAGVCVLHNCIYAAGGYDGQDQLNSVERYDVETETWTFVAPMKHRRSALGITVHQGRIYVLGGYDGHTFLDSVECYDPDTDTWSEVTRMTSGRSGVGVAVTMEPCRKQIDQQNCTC
T2 sequence (Q14145 321-609): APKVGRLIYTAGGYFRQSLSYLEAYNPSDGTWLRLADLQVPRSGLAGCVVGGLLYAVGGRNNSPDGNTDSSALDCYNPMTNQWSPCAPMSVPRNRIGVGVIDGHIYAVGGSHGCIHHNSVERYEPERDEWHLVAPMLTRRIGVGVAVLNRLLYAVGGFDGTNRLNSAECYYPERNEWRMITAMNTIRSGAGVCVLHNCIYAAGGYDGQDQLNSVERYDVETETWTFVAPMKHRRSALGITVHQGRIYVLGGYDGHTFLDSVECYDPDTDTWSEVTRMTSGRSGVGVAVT

For orientation: IC50 means the concentration that inhibits the measured activity by half. A lower IC50 goes with higher potency. Broadly, the EC50 is the concentration needed to bring the measured effect to its halfway point. High values mean a less potent agent, low ones a more potent agent. In the case of `O=C(O)c1cnn(-c2cccc(C3CCC(n4ncc5c4CCC5)C3)c2)c1C1CC1` (mixture of isomers) [Example 10, 1-[3-(3-{1H,4H,5H,6H-cyclopenta[c]pyrazol-1-yl}cyclopentyl)phenyl]-5-cyclopropyl-1H-pyrazole-4-carboxylic Acid], the figures for the IC50 in assay [1] and in assay [2] were 10000 to 100000 nM and 100 to 1000 nM, respectively. Moreover, the EC50 in assay [3] lay in the range of 1000 to 10000 nM.
As to `CN(C)C(=O)[C@H]1CCC[C@@H](c2cccc(-n3ncc(C(=O)O)c3C3CC3)c2)C1` (racemic) [Example 1, 5-Cyclopropyl-1-{3-[3-(dimethylcarbamoyl)cyclohexyl]phenyl}-1H-pyrazole-4-carboxylic Acid], the values for the IC50 in assay [1] and in assay [2] were 1000 to 10000 nM and 100 to 1000 nM, respectively. Besides, the EC50 in assay [3] lay within 1000 to 10000 nM.
Turning to `O=C(O)c1cnn(-c2cccc(C3CCCC(n4ncc5c4CCCC5)C3)c2)c1C1CC1` (racemic) [Example 2, 5-Cyclopropyl-1-{3-[3-(4,5,6,7-tetrahydro-1H-indazol-1-yl)cyclohexyl]phenyl}-1H-pyrazole-4-carboxylic Acid], the IC50 lay in the range of 1000 to 10000 nM in assay [1] and 100 to 1000 nM in assay [2]. In assay [3], this molecule returned an EC50 of 1000 to 10000 nM.
Take `O=C(O)c1cnn(-c2cccc([C@H]3CCC[C@@H](C(=O)N4CCCCC4)C3)c2)c1C1CC1` (racemic) [Example 3, 5-Cyclopropyl-1-{3-[3-(piperidine-1-carbonyl)cyclohexyl]phenyl}-1H-pyrazole-4-carboxylic Acid]: the IC50 was in the range of 1000 to 10000 nM in assay [1] and 100 to 1000 nM in assay [2]. In assay [3], the EC50 lay in the range of 1000 to 10000 nM.
Take `O=C(O)c1cnn(-c2cccc([C@@H]3CCC[C@H](C(=O)N4CCCC5(CCCC5)C4)C3)c2)c1C1CC1` (racemic) [Example 4, 1-[3-(3-{7-Azaspiro[4.5]decane-7-carbonyl}cyclohexyl)phenyl]-5-cyclopropyl-1H-pyrazole-4-carboxylic Acid]: the IC50 in assay [1] lay in the range of 1000 to 10000 nM; in assay [2], 100 to 1000 nM. The same molecule yielded an EC50 in assay [3] of 1000 to 10000 nM.
In the case of `CCCC1CCCCN1C(=O)[C@H]1CCC[C@@H](c2cccc(-n3ncc(C(=O)O)c3C3CC3)c2)C1` (mixture of isomers) [Example 5, 5-Cyclopropyl-1-{3-[3-(2-propylpiperidine-1-carbonyl)cyclohexyl]phenyl}-1H-pyrazole-4-carboxylic Acid], the IC50 was in the range of 1000 to 10000 nM in assay [1] and 100 to 1000 nM in assay [2]. The molecule also returned an EC50 in assay [3] of 1000 to 10000 nM.
As for `CC1(C)CCCN1C(=O)C1CCCC(c2cccc(-n3ncc(C(=O)O)c3C3CC3)c2)C1` (racemic) [Example 6, 5-cyclopropyl-1-{3-[3-(2,2-dimethylpyrrolidine-1-carbonyl)cyclohexyl]phenyl}-1H-pyrazole-4-carboxylic Acid], the IC50 was 1000 to 10000 nM in assay [1] and 100 to 1000 nM in assay [2]. In addition, in assay [3], the EC50 lay within 1000 to 10000 nM.
In the case of `O=C(O)c1cnn(-c2cccc(C3CCCC(C(=O)N4CCCC45CCCCC5)C3)c2)c1C1CC1` (racemic) [Example 7, 1-[3-(3-{1-Azaspiro[4.5]decane-1-carbonyl}cyclohexyl)phenyl]-5-cyclopropyl-1H-pyrazole-4-carboxylic Acid], the IC50 is 1000 to 10000 nM in assay [1] and 100 to 1000 nM in assay [2]. Besides, the EC50 in assay [3] lay in the range of 1000 to 10000 nM.
For `O=C(O)c1cnn(-c2cccc(C3CCCC(n4ncc5c4CCCCC5)C3)c2)c1C1CC1` (racemic) [Example 9, 1-[3-(3-{1H,4H,5H,6H,7H,8H-cyclohepta[c]pyrazol-1-yl}cyclohexyl)phenyl]-5-cyclopropyl-1H-pyrazole-4-carboxylic Acid], the results for the IC50 in assay [1] and in assay [2] were 1000 to 10000 nM and 100 to 1000 nM, respectively. The same molecule came in with an EC50 in assay [3] of 1000 to 10000 nM.
Regarding `O=C(O)c1cnn(-c2cccc(C3CCCC(C(=O)N4CCCC4C4CCC4)C3)c2)c1C1CC1` (racemic) [Example 13, 1-{3-[3-(2-cyclobutylpyrrolidine-1-carbonyl)cyclohexyl]phenyl}-5-cyclopropyl-1H-pyrazole-4-carboxylic Acid], the IC50 was in the range of 100 to 1000 nM in assay [1] and 10 to 100 nM in assay [2]. Also, the EC50 in assay [3] was 1000 to 10000 nM.
For `CC1CCc2cnn([C@@H]3CCC[C@H](c4cccc(-n5ncc(C(=O)O)c5C5CC5)c4)C3)c21` (mixture of isomers) [Example 14, 5-Cyclopropyl-1-{3-[(cis)-3-(6-methyl-5,6-dihydro-4H-cyclopentapyrazol-1-yl)-cyclohexyl]-phenyl}-1H-pyrazole-4-carboxylic Acid], the IC50 in assay [1] lay in the range of 1000 to 10000 nM; in assay [2] it was 100 to 1000 nM. This molecule returned an EC50 in assay [3] of 1000 to 10000 nM.
